{"source": "patent US11202787B2", "about": "“Use of ACTH in assessment and prophylactic treatment of hypokalemia associated with glucocorticoid receptor modulator treatment of Cushing's syndrome patients” (Corcept Therapeutics, Inc., priority 2018, dated 2021)", "type_in_all_cases": "in vivo, human", "key": {"[1]": {"test_system": "psychotic major depression (PMD) subjects", "test": "Double blind psychotic major depression (PMD) trials: hypokalemia", "source_text": "(§1) Clinically meaningful hypokalemia (≤3.1) has been reported in 16 of 821 (1.9%) mifepristone treated subjects (12 in completed double blind PMD trials, and 4 in a completed Alzheimer's trial), and in 5 of 626 (0.8%) placebo treated subjects in completed PMD trials."}, "[2]": {"test_system": "cortisol", "test": "Total serum cortisol during mifepristone treatment of Cushing's syndrome patients", "conditions": "for Total Serum Cortisol Visit Values: Mean ± SD", "source_text": "(§2) The term “measuring the level,” in the context of cortisol, ACTH, mifepristone, or other compounds, refers to determining, detecting, or quantitating the amount, level, or concentration of, for example, cortisol, ACTH, mifepristone, or other compound in a sample obtained from a subject. Plasma or serum samples are often used for measuring ACTH or cortisol level.\n(§3) The types of samples that are suitable for cortisol determination can be serum, plasma, saliva, urine, or any other biological fluid taken from a subject. In preferred embodiments, the sample is a serum sample, or is a plasma sample. The level of cortisol can be measured using various methods, including but not limited to, immunoassays, e.g., competitive immunoassay, radioimmunoassay (MA), immunofluorometric enzyme assay, and ELISA; competitive protein-binding assays; liquid chromatography (e.g., HPLC); and mass spectrometry, e.g., high-performance liquid chromatography/triple quadrupole-mass spectrometry (LC-MS/MS). In preferred embodiments, cortisol levels are measured using LC-MS/MS, such as performed by Quest Diagnostics (Secaucus, N.J. 07094).\n(§4) The Cushing's syndrome study reported herein was conducted in accordance with the Declaration of Helsinki and Good Clinical Practice (GCP) according to International Conference on Harmonization (ICH) guidelines.\n(§5) Dosing Schedule Dosing was started with 300 mg of mifepristone once per day for 14 days. After 14 days, if no clinical improvement was seen but the drug was well tolerated, the dose of mifepristone was increased to 600 mg once per day. After 4 weeks of dosing at 600 mg once per day, if no clinical improvement was seen but the drug was well tolerated, the dose was increased to 900 mg once per day. Dose escalation was based on weight with the maximum dose no higher than 20 mg/kg/day. […] After 4 weeks of dosing at 900 mg once per day, if no clinical improvement was seen but the drug was well tolerated, the dose was increased to 1200 mg once per day. Study duration was 24 weeks.\n(§6) Potassium levels were obtained on every subject at either screening or the pre-drug administration baseline visit, and then also at every scheduled post-baseline visit. Potassium levels post-baseline were therefore obtained as early as day 7 and through day 210 (week 30 was the last visit and was the 6 week follow-up visit). ACTH, and cortisol were measured at six visits (week 2 (day 14), week 6 (day 42), week 10 (day 70), week 16 (day 112), and week 24 (day 168) week 6 follow-up (day 210))."}, "[3]": {"test_system": "subjects in an Alzheimer's study", "test": "Alzheimer's study: hypokalemia", "source_text": "as §1"}, "[4]": {"test_system": "ACTH", "test": "ACTH levels during mifepristone treatment of Cushing's syndrome patients", "conditions": "for ACTH Visit Change Values from Baseline / Ratio of ACTH Visit Change Values from Baseline per Baseline (ACTH_CHG/ACTH Baseline): Mean ± SD", "source_text": "as §2\nas §3, with “ACTH” for “cortisol”, “(LC-MS/MS). Commercial kits for measuring ACTH are readily available, e.g., from Mayo clinic (Test ID: ACTH), Siemens Healthcare Global (Immulite® 2000 ACTH assay), and Roche Molecular Diagnostics (Catalog No. 03255751190).” for “(LC-MS/MS).”, “a radioimmunoassay (RIA), most preferable a two-site MA,” for “LC-MS/MS,”\nas §4, §5, §6"}, "[5]": {"conditions": "43 subjects with Cushing's disease"}, "[6]": {"conditions": "Day 210 (6 week follow-up), Hypokalemic"}, "[7]": {"conditions": "Day 210 (6 week follow-up), Non-Hypokalemic"}}}
{"smiles": "CC#C[C@]1(O)CC[C@H]2[C@@H]3CCC4=CC(=O)CCC4=C3[C@@H](c3ccc(N(C)C)cc3)C[C@@]21C", "note": "[mifepristone, 11β-(4-dimethylaminophenyl)-17β-hydroxy-17α-(1-propynyl)-estra-4,9-dien-3-one]", "values": [{"measurement": "Clinically meaningful hypokalemia (≤3.1)", "setting": "[1]; 16 of 821 mifepristone treated subjects, PMD and Alzheimer's trials together", "value": 1.9, "unit": "%"}, {"measurement": "Hypokalemia in the range of 2.4 to 3.4 mEq/L", "setting": "[1]; 61 of 782 mifepristone treated subjects", "value": 7.8, "unit": "%"}, {"measurement": "Clinically meaningful hypokalemia (≤3.1), subjects", "setting": "[1]; completed double blind PMD trials", "value": 12}, {"measurement": "serum cortisol increase during mifepristone treatment", "setting": "[2]; [5]", "value": "increased to a smaller degree"}, {"measurement": "Total Serum Cortisol Visit Values", "setting": "[2]; Day 14, Hypokalemic", "value": "1261 ± 786 (8) nmol/L"}, {"measurement": "Total Serum Cortisol Visit Values", "setting": "[2]; Day 14, Non-Hypokalemic", "value": "782 ± 246 (38) nmol/L"}, {"measurement": "Total Serum Cortisol Visit Values", "setting": "[2]; Day 42, Hypokalemic", "value": "1274 ± 401 (6) nmol/L"}, {"measurement": "Total Serum Cortisol Visit Values", "setting": "[2]; Day 42, Non-Hypokalemic", "value": "828 ± 249 (35) nmol/L"}, {"measurement": "Total Serum Cortisol Visit Values", "setting": "[2]; Day 70, Hypokalemic", "value": "1390 ± 283 (6) nmol/L"}, {"measurement": "Total Serum Cortisol Visit Values", "setting": "[2]; Day 70, Non-Hypokalemic", "value": "1025 ± 546 (30) nmol/L"}, {"measurement": "Total Serum Cortisol Visit Values", "setting": "[2]; Day 112, Hypokalemic", "value": "1318 ± 677 (9) nmol/L"}, {"measurement": "Total Serum Cortisol Visit Values", "setting": "[2]; Day 112, Non-Hypokalemic", "value": "813 ± 318 (23) nmol/L"}, {"measurement": "Total Serum Cortisol Visit Values", "setting": "[2]; Day 168, Hypokalemic", "value": "1298 ± 597 (5) nmol/L"}, {"measurement": "Total Serum Cortisol Visit Values", "setting": "[2]; Day 168, Non-Hypokalemic", "value": "948 ± 537 (37) nmol/L"}, {"measurement": "Total Serum Cortisol Visit Values", "setting": "[2]; [6]", "value": "1228 ± 561 (3) nmol/L"}, {"measurement": "Total Serum Cortisol Visit Values", "setting": "[2]; [7]", "value": "696 ± 477 (37) nmol/L"}, {"measurement": "Clinically meaningful hypokalemia (≤3.1), subjects", "setting": "[3]; completed Alzheimer's trial", "value": 4}, {"measurement": "Hypokalemia in the range of 2.8 to 3.5 mEq/L", "setting": "[3]; out of 33 subjects, 300 mg per day for 16 weeks", "value": 9, "unit": "subjects"}, {"measurement": "ACTH increase during mifepristone treatment", "setting": "[4]; [5]", "value": "about two-fold"}, {"measurement": "ACTH Visit Change Values from Baseline", "setting": "[4]; Day 14, Hypokalemic", "value": "60.8 ± 99.6 (8) ng/L"}, {"measurement": "Ratio of ACTH Visit Change Values from Baseline per Baseline (ACTH_CHG/ACTH Baseline)", "setting": "[4]; Day 14, Hypokalemic", "value": "1.87 ± 1.32 (8)"}, {"measurement": "ACTH Visit Change Values from Baseline", "setting": "[4]; Day 14, Non-Hypokalemic", "value": "30.6 ± 26.9 (38) ng/L"}, {"measurement": "Ratio of ACTH Visit Change Values from Baseline per Baseline (ACTH_CHG/ACTH Baseline)", "setting": "[4]; Day 14, Non-Hypokalemic", "value": "1.77 ± 0.72 (38)"}, {"measurement": "ACTH Visit Change Values from Baseline", "setting": "[4]; Day 42, Hypokalemic", "value": "86.3 ± 58.2 (6) ng/L"}, {"measurement": "Ratio of ACTH Visit Change Values from Baseline per Baseline (ACTH_CHG/ACTH Baseline)", "setting": "[4]; Day 42, Hypokalemic", "value": "2.50 ± 0.61 (6)"}, {"measurement": "ACTH Visit Change Values from Baseline", "setting": "[4]; Day 42, Non-Hypokalemic", "value": "40.6 ± 54.7 (35) ng/L"}, {"measurement": "Ratio of ACTH Visit Change Values from Baseline per Baseline (ACTH_CHG/ACTH Baseline)", "setting": "[4]; Day 42, Non-Hypokalemic", "value": "2.02 ± 0.97 (35)"}, {"measurement": "ACTH Visit Change Values from Baseline", "setting": "[4]; Day 70, Hypokalemic", "value": "211.8 ± 147.5 (6) ng/L"}, {"measurement": "Ratio of ACTH Visit Change Values from Baseline per Baseline (ACTH_CHG/ACTH Baseline)", "setting": "[4]; Day 70, Hypokalemic", "value": "4.08 ± 2.51 (6)"}, {"measurement": "ACTH Visit Change Values from Baseline", "setting": "[4]; Day 70, Non-Hypokalemic", "value": "49.2 ± 22.5 (30) ng/L"}, {"measurement": "Ratio of ACTH Visit Change Values from Baseline per Baseline (ACTH_CHG/ACTH Baseline)", "setting": "[4]; Day 70, Non-Hypokalemic", "value": "2.06 ± 1.01 (30)"}, {"measurement": "ACTH Visit Change Values from Baseline", "setting": "[4]; Day 112, Hypokalemic", "value": "101.4 ± 159.6 (9) ng/L"}, {"measurement": "Ratio of ACTH Visit Change Values from Baseline per Baseline (ACTH_CHG/ACTH Baseline)", "setting": "[4]; Day 112, Hypokalemic", "value": "2.53 ± 1.49 (9)"}, {"measurement": "ACTH Visit Change Values from Baseline", "setting": "[4]; Day 112, Non-Hypokalemic", "value": "70.2 ± 82.2 (23) ng/L"}, {"measurement": "Ratio of ACTH Visit Change Values from Baseline per Baseline (ACTH_CHG/ACTH Baseline)", "setting": "[4]; Day 112, Non-Hypokalemic", "value": "2.47 ± 1.87 (23)"}, {"measurement": "ACTH Visit Change Values from Baseline", "setting": "[4]; Day 168, Hypokalemic", "value": "151.2 ± 166.5 (5) ng/L"}, {"measurement": "Ratio of ACTH Visit Change Values from Baseline per Baseline (ACTH_CHG/ACTH Baseline)", "setting": "[4]; Day 168, Hypokalemic", "value": "3.30 ± 2.54 (5)"}, {"measurement": "ACTH Visit Change Values from Baseline", "setting": "[4]; Day 168, Non-Hypokalemic", "value": "48.2 ± 73.8 (37) ng/L"}, {"measurement": "Ratio of ACTH Visit Change Values from Baseline per Baseline (ACTH_CHG/ACTH Baseline)", "setting": "[4]; Day 168, Non-Hypokalemic", "value": "2.08 ± 1.31 (37)"}, {"measurement": "ACTH Visit Change Values from Baseline", "setting": "[4]; [6]", "value": "113.7 ± 167.7 (3) ng/L"}, {"measurement": "Ratio of ACTH Visit Change Values from Baseline per Baseline (ACTH_CHG/ACTH Baseline)", "setting": "[4]; [6]", "value": "1.36 ± 0.46 (3)"}, {"measurement": "ACTH Visit Change Values from Baseline", "setting": "[4]; [7]", "value": "13.4 ± 34.0 (37) ng/L"}, {"measurement": "Ratio of ACTH Visit Change Values from Baseline per Baseline (ACTH_CHG/ACTH Baseline)", "setting": "[4]; [7]", "value": "1.33 ± 0.61 (37)"}, {"measurement": "rise in ACTH levels following an initial increase in mifepristone dose (FIG. 1)", "setting": "[4]; patients who did not experience hypokalemia", "value": "about 25 pg/mL"}]}
